Assay results: ChEMBL document CHEMBL6134788, “Development of naphthalimide hydrazide derivatives as potent antibacterial agents against carbapenem-resistant A. baumannii” (RSC Med Chem, 2024)
Converted amounts (≈) assume the structure as drawn.

Columns and labels:
Format in all cases: functional
Details in all cases: time 16-18 hrs, read-out: MIC100
Escherichia coli = test: Antibacterial activity against Escherichia coli ATCC 25922 assessed as inhibition of bacterial growth incubated for 16 to 18 hrs by CLSI protocol based method
Pseudomonas aeruginosa = test: Antibacterial activity against Pseudomonas aeruginosa ATCC 27853 assessed as inhibition of bacterial growth incubated for 16 to 18 hrs by CLSI protocol based method
Klebsiella pneumoniae = test: Antibacterial activity against Klebsiella pneumoniae BAA 1705 assessed as inhibition of bacterial growth incubated for 16 to 18 hrs by CLSI protocol based method
Staphylococcus aureus = test: Antibacterial activity against Staphylococcus aureus ATCC 29213 assessed as inhibition of bacterial growth incubated for 16 to 18 hrs by CLSI protocol based method
Acinetobacter baumannii = test: Antibacterial activity against carbapenem-resistant Acinetobacter baumannii BAA 1605 assessed as inhibition of bacterial growth incubated for 16 to 18 hrs by CLSI protocol based method

| SMILES | MIC (Escherichia coli) | MIC (Pseudomonas aeruginosa) | MIC (Klebsiella pneumoniae) | MIC (Staphylococcus aureus) | MIC (Acinetobacter baumannii) |
| --- | --- | --- | --- | --- | --- |
| O=C(CCCN1C(=O)c2cccc3cccc(c23)C1=O)NNc1ccccc1 | > 64 mg/L | > 64 mg/L | > 64 mg/L | > 64 mg/L | 4 mg/L (≈ 10.7 µM) |
| COc1ccc(NNC(=O)CCN2C(=O)c3cccc4cccc(c34)C2=O)cc1 | > 64 mg/L | > 64 mg/L | > 64 mg/L | > 64 mg/L | 4 mg/L (≈ 10.3 µM) |
| O=C(CCN1C(=O)c2cccc3cccc(c23)C1=O)NNc1ccccc1Cl | > 64 mg/L | > 64 mg/L | > 64 mg/L | > 64 mg/L | > 64 mg/L |
| O=C(CCN1C(=O)c2cccc3cccc(c23)C1=O)NNc1cc(Cl)cc(Cl)c1 | > 64 mg/L | > 64 mg/L | > 64 mg/L | > 64 mg/L | > 64 mg/L |
| O=C(CCN1C(=O)c2cccc3cccc(c23)C1=O)NNc1cc(F)cc(F)c1 | > 64 mg/L | > 64 mg/L | > 64 mg/L | > 64 mg/L | > 64 mg/L |
| NCC[C@H](O)C(=O)N[C@@H]1C[C@H](N)[C@@H](O[C@H]2O[C@H](CN)[C@@H](O)[C@H](O)[C@H]2O)[C@H](O)[C@H]1O[C@H]1O[C@H](CO)[C@@H](O)[C@H](N)[C@H]1O [AMIKACIN] |  |  |  |  | 4 mg/L (≈ 6.83 µM) |
| Cc1ccc(NNC(=O)CCN2C(=O)c3cccc4cccc(c34)C2=O)cc1 | > 64 mg/L | > 64 mg/L | > 64 mg/L | > 64 mg/L | 4 mg/L (≈ 10.7 µM) |
| N#Cc1ccc(NNC(=O)[C@@H](Cc2ccccc2)N2C(=O)c3cccc4cccc(c34)C2=O)cc1 | > 64 mg/L | > 64 mg/L | > 64 mg/L | > 64 mg/L | 16 mg/L (≈ 34.7 µM) |
| O=C(CCN1C(=O)c2cccc3cccc(c23)C1=O)NNc1ccc([N+](=O)[O-])cc1 | > 64 mg/L | > 64 mg/L | > 64 mg/L | > 64 mg/L | 4 mg/L (≈ 9.89 µM) |
| O=C(CCN1C(=O)c2cccc3cccc(c23)C1=O)NNc1cccc(Br)c1 | > 64 mg/L | > 64 mg/L | > 64 mg/L | > 64 mg/L | > 64 mg/L |
| O=C(NNc1ccccc1)[C@@H](Cc1ccccc1)N1C(=O)c2cccc3cccc(c23)C1=O | > 64 mg/L | > 64 mg/L | > 64 mg/L | > 64 mg/L | 8 mg/L (≈ 18.4 µM) |
| O=C(CCN1C(=O)c2cccc3cccc(c23)C1=O)NNc1ccc(Cl)cc1Cl | > 64 mg/L | > 64 mg/L | > 64 mg/L | > 64 mg/L | > 64 mg/L |
| N#Cc1ccc(NNC(=O)CN2C(=O)c3cccc4cccc(c34)C2=O)cc1 | > 64 mg/L | > 64 mg/L | > 64 mg/L | > 64 mg/L | 4 mg/L (≈ 10.8 µM) |
| NC[C@H]1O[C@H](O[C@H]2[C@H](O)[C@@H](O[C@H]3O[C@H](CO)[C@@H](O)[C@H](N)[C@H]3O)[C@H](N)C[C@@H]2N)[C@H](N)C[C@@H]1O [TOBRAMYCIN] |  |  |  |  | 4 mg/L (≈ 8.56 µM) |
